Legend:
[1] = Measurements of human plasma protein binding; assay type: in vitro ADME
Experimental: An aliquot of 200 μL of human plasma containing test compound was spiked into donor well (red chamber) of the insert. 350 μL of PBS was spiked into receiver well (white chamber) of the insert.
The samples were matrix equilibrated with opposite matrix (25 μL of plasma/buffer sample was matched with 25 μL of blank buffer/plasma). Matrix matched samples were precipitated with 200 μL of acetonitrile containing internal standard. Samples were vortexed at 1000 rpm for 5 min and centrifuged at 4000 rpm for 10 min. Supernatant was separated, diluted 2 fold with water and analysed in LC-MS/MS. TO control samples were processed immediately after the preparation of plasma working stock solutions. These samples serves as a measure for calculating the percentage recovery of test compounds.

[2] = biological target: PDE5 enzyme isolated from human platelets (Homo sapiens (Human), UniProt O76074); assay: PDE5 assay (Example 109), formation of 5′GMP from cGMP, SPA; details: for % inhibition at 5.0E−09 M: percent inhibition of control enzyme activity at 5.0E−09 M, assay of Example 109;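 for all read-outs here: tritiated 5′GMP counted by scintillation after SPA bead capture, enzyme reaction run 60 min at 22 °C, basal control is the mixture without enzyme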
Experimental: Evaluation of the effects of compounds of the present invention on the activity of the human phosphodiesterase-5 quantified by measuring the formation of 5′GMP from cGMP using PDE5 enzyme isolated from human platelets.
Thereafter, the reaction is initiated by addition of the enzyme and the mixture is incubated for 60 min at 22° C.
For basal control measurements, the enzyme is omitted from the reaction mixture. Following incubation SPA beads are added. After 20 min at 22° C. under shaking, the amount of [3H]5′GMP is quantified with a scintillation counter (Topcount, Packard).
The standard inhibitory reference compound is dipyridamole, which is tested in each experiment at several concentrations to obtain an inhibition curve from which its IC50 value is calculated.

[3] = test system: Human Pulmonary Artery Smooth Muscle Cells (hPASMC); assay: Measurements of cGMP in human pulmonary artery smooth muscle cells (hPASMC); assay type: cell-based; details: 30 min incubation, 0.1 pM-1 uM, compared to sildenafil, mirodenafil or compound 5 (FIG. 3)
Experimental: Human Pulmonary Artery Smooth Muscle Cells (hPASMC) were purchased from Clonetics™ Lonza (Lonza, reference number CC-2581) and cultured in Clonetics™ smooth muscle growth medium (Clonetics™ SmGM™-2 with BulletKit™ growth factor supplements (Lonza, reference number CC-3182) at 37° C. in 5% CO2. Culture medium was replaced each 48 hours. Cells were grown in 75 cm^2 culture plates. 48 h before the experiments, cells were trypsinized (Trypsin kit One ReagentPack™ (CC-5034), Lonza) and plated in 96 well plates precoated with collagen I at 10000 cells per well. 24 h before the experiments culture medium was replaced by serum-reduced (0.5% FBS) medium. […]
Measurements of intracellular cGMP were performed using the Amersham cGMP EIA System (GE Healthcare, RPN226) following the instructions of the manufacturer. […] Briefly, incubations were terminated by adding Amersham's lysis buffer 1 and cells left for 10 min under agitation to ensure complete lysis. cGMP in samples was then acetylated using triethylamine and acetic anhydride and determined by a competitive ELISA. The ELISA is based on the competition between acetylated cGMP in cell culture lysates and a peroxidase-labelled cGMP conjugate for limited binding sites on a cGMP specific antiserum immobilized on pre-coated 96 well MTP. cGMP was determined based on a standard curve. […]

With `CCCOc1ccc(S(=O)(=O)N2CCC(CCO[N+](=O)[O-])CC2)cc1-c1nc2c(CCC)cn(CC)c2c(=O)[nH]1` [Compound 1b, 2-(1-((3-(5-ethyl-4-oxo-7-propyl-4,5-dihydro-3H-pyrrolo[3,2-d]pyrimidin-2-yl)-4-propoxyphenyl)sulfonyl)piperidin-4-yl)ethyl nitrate] the “% Bound in Plasma” value [1] was 99.95%, the fraction unbound [1] was 0.0005 and the recovery ([1]; human) was 100%. For the same compound, the IC50 [2] was over 10 nM, the “% inhibition at 5.0E−09 M” value [2] was 12.4% and the “efficacy in increasing intracellular cGMP level” value [3] was “significantly higher efficacy in increasing cGMP level”.

In the case of `CCCOc1ccc(S(=O)(=O)N2CCN(CCO[N+](=O)[O-])CC2)cc1-c1nc2c(CCC)cn(CC)c2c(=O)[nH]1` [Compound 1i, 2-(4-((3-(5-ethyl-4-oxo-7-propyl-4,5-dihydro-3H-pyrrolo[3,2-d]pyrimidin-2-yl)-4-propoxyphenyl)sulfonyl)piperazin-1-yl)ethyl nitrate], the IC50 [2] is reported as 2 nM, the “% inhibition at 5.0E−09 M” value [2] is reported as 60.0% and the “efficacy in increasing intracellular cGMP level” value [3] is reported as “significantly higher efficacy in increasing cGMP level”.

Reference: patent publication US11155558B2, “Dual mode of action soluble guanylate cyclase activators and phosphodiesterase inhibitors and uses thereof” (TOPADUR PHARMA AG, priority 2017, dated 2021)
